# From patent US5747482A, “Methods and compositions to inhibit keratinocyte proliferation” (priority 1996, dated 1998)
# Columns and labels:
# Keratinocytes [1] = assay: Effect on cell differentiation and cell number, gallium maltol added 24 hours after seeding, Example 4; format: cell-based, human; details: 7 days, high calcium
# Method: (§1) Adult human keratinocytes from pooled donor skin were obtained from commercial sources (Cascade Biologics, Portland, Oreg., U.S.A.) and placed in 150 cm^2 bottom area culture flasks using culture medium 154 supplemented with HKGS (about 1%). At 80% confluency, cells were harvested with trypsin and cryopreserved until required.
# (§2) Culture flasks (75 cm^2 bottom area) were seeded with keratinocytes at about 2,500 cells per cm^2 as before. After 24 hours, the medium in three (3) flasks were changed to media (154) with the calcium content increased from the normal 0.2 mM to 1.0 mM ("high calcium") plus gallium maltol (GaM) at the following concentrations: 1×10^-5 M, 5×10^-5 M, and 1×10^-4 M. The culture was continued for 7 days when cells were about 75% confluent in the controls (no GaM). Media supplemented as above were changed every 2 days. Finally, media were aspirated and cells rinsed with PBS before exposure to trypsin (0.025%)/EDTA (0.01%). When dislodged, they were collected in centrifuge tubes and the flasks rinsed with PBS:trypsin neutralizing solution (Clonetics, San Diego, Calif., U.S.A.; 1:1 v/v) and added to the cell suspension. The total volume of suspensions was approximately 8 to 10 mL. Aliquots of these suspensions were counted on the hemocytometer in terms of:
# (§3) (1) small, light or dark keratinocytes, referred to as "proliferating";
# (§4) (2) larger, squamous keratinocytes, with intracellular structural elements; and
# (§5) (3) clear squamous cells without structural elements.
# After counting, each suspension was centrifuged, the supernatant discarded, and the cell pellet resuspended in 0.5 to 1.0 mL of 1% SDS:2.5 mM DTT. After 15 minutes at 37° C., aliquots of these suspensions were counted for insoluble cornified envelops. The volumes were noted.
# [2] = distilled deionized water
# Text: Under some conditions, water may also be incorporated into the structure. […] The complex can be recrystallized from ethanol or other solvents to increase purity.
# Keratinocytes [3] = assay: Comparison of keratinocyte growth inhibition by gallium maltol, gallium nitrate and maltol, Example 3; format: cell-based, human; details: 1×10^-4 M, 9 days, high Ca^+2 medium; FIG. 3
# Text: as §1
# At the start of the experiments, the required number of vials of keratinocytes was thawed, and the keratinocytes were placed in culture in 24 well plates at about 2,500 cells/cm^2 using the same culture medium as described above. After 24 hours (to allow attachment), the medium was changed to fresh 154 supplemented with HKGS (about 1%) and gallium maltol. Specifically, the fresh medium was prepared by addition of a sufficient amount of a stock solution to provide for six different compositions having a final gallium concentration of 10^-4 M, 10^-5 M, 10^-6 M, 10^-8 M, 10^-10 M, and 10^-12 M. The stock solution was prepared by adding 22.25 mg of gallium maltol to 50 mL of 154 medium and then passing the solution through a 0.2 μm filter and storing at 4° C.
# When control cells were about 40% confluent (generally at 4-5 days in culture, all media were removed by aspiration, keratinocyte growth was assayed by crystal violet staining and conversion to cell numbers as described by Wilkinson, et al.^11. Specifically, cell layers rinsed in PBS, which was also aspirated, and 4 drops of crystal violet solution added to each well. The crystal violet solution was prepared by dissolving crystal violet (Fisher Scientific) in PBS:formaldehyde:ethanol (67:3:30%) to give a 0.5 w/v solution. A blank 24-well plate was treated similarly.
# Keratinocytes were cultured in 24-well plates for 9 days in the manner described above in Example 2. […]
# The cells were then cultured and subsequently evaluated for inhibition of keratinocyte proliferation in the manner described above.
# Keratinocytes [4] = assay: Effect on cell differentiation, keratinocytes grown 4 days before gallium maltol, Example 4; format: cell-based, human; details: for CELL NUMBER, clear squamous / CELL NUMBER, squamous / CELL NUMBER, proliferative: 3 days after 4 days growth; for CELL NUMBER, clear squamous: control 2.0 ± 0.03%; for CELL NUMBER, squamous: control 13.3 ± 2.6%; for CELL NUMBER, proliferative: control 83.6 ± 3.0%
# Method: as §1, §2, §3, §4, §5
# In a subsequent experiment, flasks of keratinocytes were grown in medium 154 for 4 days after seeding, before switching to the high calcium medium without gallium maltol (control) or with gallium maltol at final concentrations of 5×10^-5, 1×10^-5 or 1×10^-6 M. There were 2 or 3 flasks in each group. Culture was continued for another 3 days, when the keratinocytes were harvested and counted as before.
# keratinocyte cells = format: cell-based, human; details: keratinocytes, 48 h, 500 µM
# Method: as §1
# Culture was renewed for a further 24 hours. At this time, media were removed and discarded, and the cells lysed with 200 μL/well of the solution provided in the Cell Death Detection Kit ELISA Plus (Boehringer Mannheim Biochemicals, Indianapolis, Ind., U.S.A., catalogue number 1774425). Aliquots of the lysate (20 μL) from each of 2 or 3 wells were assayed for nucleosomal enrichment following the kit instructions.
# The evaluation of apoptosis of keratinocytes was conducted to determine the relative affect on apoptosis achieved by gallium maltol, gallium nitrate and maltol. Specifically, keratinocyte cells were seeded in 12 well plates seed using culture medium 154. Cultures were continued for 4 days and the medium was changed to medium 154 with 1.2 mM Ca^+2 either without supplement or with one of the following supplements:
# 1. gallium maltol at a final concentration of 5×10^-4 M;
# 2. gallium nitrate at a final concentration of 5×10^-4 M;
# 3. maltol at a concentration of 15×10^-4 M; and
# 4. CAM at a concentration of 1×10^-5 M.
# Three (3) wells were used in each group. The final amount of medium was 300 μL in each well. Culture was continued for 2 days. Bars represent absorbance at 405 nm minus the absorbance at 492 nm.
smiles,measurement,setting,value
"Cc1occc(=O)c1[O-].Cc1occc(=O)c1[O-].Cc1occc(=O)c1[O-].[Ga+3] [gallium maltol, neutral 3:1 gallium complex of maltol]",anti-proliferative effect,Keratinocytes [1]; 1×10^-4 M,so great that the number of cells was too small for accurate counting
same,"number of proliferative, squamous and cornified cells vs control",Keratinocytes [1]; 1×10^-5 M,"for all intents and purposes, unchanged compared to control"
same,increase in the number of cornified envelopes vs control,Keratinocytes [1]; 5×10^-5 M,tenfold
same,decrease in total number of cells,"Keratinocytes [1]; 5×10^-5 M, vs control, 50 µM",about 90%
same,number of squamous cells vs control,"Keratinocytes [1]; 5×10^-5 M, FIG. 4",increase in the number of squamous cells
same,proportion of proliferative cells vs control,"Keratinocytes [1]; 5×10^-5 M, FIG. 4",moderate decrease in the proportion of proliferative cells
same,"CELL NUMBER, cornified","Keratinocytes [1]; 10^-5 M, control 0.26 ± 0.01%",0.39 ± 0.17%
same,"CELL NUMBER, clear squamous","Keratinocytes [1]; 10^-5 M, control 1.8 ± 0.9%",2.9 ± 0.15%
same,"CELL NUMBER, squamous","Keratinocytes [1]; 10^-5 M, control 12.7 ± 2.7%",13.5 ± 0.65%
same,"CELL NUMBER, proliferative","Keratinocytes [1]; 10^-5 M, control 85.3 ± 2.7%",83.6 ± 0.64%
same,concentration at which inhibition of keratinocyte proliferation is achieved,Keratinocytes [1],greater than 1×10^-5 M
same,concentration enhancing cell differentiation of keratinocytes,Keratinocytes [1],greater than 1×10^-5 M
same,solubility,[2],about 24 millimolar
same,inhibition of keratinocyte proliferation,Keratinocytes [3],about 94%
same,"CELL NUMBER, clear squamous",Keratinocytes [4]; 1×10^-5 M,3.1 ± 0.06%
same,"CELL NUMBER, squamous",Keratinocytes [4]; 1×10^-5 M,16.0 ± 3.1%
same,"CELL NUMBER, proliferative",Keratinocytes [4]; 1×10^-5 M,80.8 ± 2.0%
same,differences in cell differentiation as determined by the proportion of cells,"Keratinocytes [4]; 5×10^-5 M, 1×10^-5 M (1×10^-6 M not counted), 4 days growth, then 3 days exposure",no significant differences were observed in cell differentiation
same,"CELL NUMBER, clear squamous",Keratinocytes [4]; 5×10^-5 M,3.5 ± 0.06%
same,"CELL NUMBER, squamous",Keratinocytes [4]; 5×10^-5 M,14.0 ± 1.1%
same,"CELL NUMBER, proliferative",Keratinocytes [4]; 5×10^-5 M,82.4 ± 0.91%
same,increase in apoptosis compared to control,keratinocyte cells,~19 fold
